molecular target: human recombinant GABA A receptor containing the alpha2, beta2, and gamma3 subunits (Homo sapiens, UniProt P47869+Q99928); assay: Radioligand competition binding assay with [3H]Ro-15-1788 (Flumazenil); settings: not given;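 note: membranes from HEK cells expressing the receptor, incubated with radioligand to equilibrium, filter-bound radioactivity counted, Ki reported as geometric mean of replicate runs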

Row | Ki [nM] | Molecule
1 | 678 | CCn1cnc2c(-c3ccc(OC)c(-c4ccc(S(=O)(=O)CC)cc4F)c3)cnnc21 [Example 44, 7-Ethyl-4-(4′-(ethylsulfonyl)-2′-fluoro-6-methoxy-[1,1′-biphenyl]-3-yl)-7H-imidazo[4,5-c]pyridazine]
2 | 1750 | CCn1cnc2c(-c3ccc(OC)c(-c4ccc(S(=O)(=O)CC)cc4OC)c3)cnnc21 [Example 46, 7-Ethyl-4-(4′-(ethylsulfonyl)-2′,6-dimethoxy-[1,1′-biphenyl]-3-yl)-7H-imidazol[4,5-c]pyridazine]
3 | 38.8 | CC(C)n1cnc2c(-c3ccc(F)c(-c4ccc(S(=O)(=O)C(C)C)cc4C#N)c3)cnnc21 [Example 35, 2′-Fluoro-5′-(7-isopropyl-7H-imidazo[4,5-c]pyridazin-4-yl)-4-(isopropylsulfonyl)-[1,1′-biphenyl]-2-carbonitrile]
4 | 9.51 | CCn1cnc2c(-c3ccc(F)c(-c4ccc(S(=O)(=O)C5CCC5)cc4OC)c3)cnnc21 [Example 6, 4-(4′-(Cyclobutylsulfonyl)-6-fluoro-2′-methoxy-[1,1-biphenyl]-3-yl)-7-ethyl-7H-imidazo[4,5-c]pyridazine]
5 | 56 | CCn1cnc2c(-c3cccc(-c4ccc(S(C)(=O)=O)cc4)c3)cnnc21 [Example 16, 7-Ethyl-4-[4′-(methylsulfonyl)biphenyl-3-yl]-7H-imidazo[4,5-c]pyridazine]
6 | 108 | CCn1cnc2c(-c3ccc(F)c(-c4ccc(S(=O)(=O)C(C)C)cc4C#N)c3)cnnc21 [Example 5, 5′-(7-Ethyl-7H-imidazo[4,5-c]pyridazin-4-yl)-2′-fluoro-4-(isopropylsulfonyl)-[1,1′-biphenyl]-2-carbonitrile]
7 | 34.8 | CCS(=O)(=O)c1ccc(-c2cc(-c3cnnc4c3ncn4C3(C)CC3)ccc2F)cc1 [Example 27, 4-[4′-(Ethylsulfonyl)-6-fluorobiphenyl-3-yl]-7-(1-methylcyclopropyl)-7H-imidazo[4,5-c]pyridazine]
8 | 19 | NS(=O)(=O)c1ccc(-c2cc(-c3cnnc4c3ncn4C3CC3)ccc2F)cc1 [Example 20, 5′-(7-Cyclopropyl-7H-imidazo[4,5-c]pyridazin-4-yl)-2′-fluoro-[1,1′-biphenyl]-4-sulfonamide]
9 | 296 | CC(C)S(=O)(=O)c1ccc(-c2cc(-c3cnnc4c3ncn4C3CC3)ccc2F)c(C#N)c1 [Example 18]
10 | 102 | CCn1cnc2c(-c3cccc(-c4ccc5c(c4)CCS5(=O)=O)c3)cnnc21 [Example 17, 4-[3-(1,1-dioxido-2,3-dihydro-1-benzothiophen-5-yl)phenyl]-7-ethyl-7H-imidazo[4,5-c]pyridazine]
11 | 67.8 | CCS(=O)(=O)c1ccc(-c2cc(-c3cnnc4c3ncn4C3CC3)ccc2F)c(F)c1 [Example 22, 7-Cyclopropyl-4-(4′-(ethylsulfonyl)-2′,6-difluoro-[1,1′-biphenyl]-3-yl)-7H-imidazo[4,5-c]pyridazine]
12 | 147 | CCS(=O)(=O)c1ccc(-c2cc(-c3cnnc4c3ncn4C3CCC3)ccc2F)c(F)c1 [Example 26, 7-Cyclobutyl-4-(4′-(ethylsulfonyl)-2′,6-difluoro-[1,1′-biphenyl]-3-yl)-7H-imidazo[4,5-c]pyridazine]
13 | 40.5 | COc1cc(S(=O)(=O)C(C)C)ccc1-c1cc(-c2cnnc3c2ncn3C2CC2)ccc1F [Example 23, 7-Cyclopropyl-4-(6-fluoro-4′-(isopropylsulfonyl)-2′-methoxy-[1,1′-biphenyl]-3-yl)-7H-imidazo[4,5-c]pyridazine]
14 | 74.3 | CCS(=O)(=O)c1ccc(-c2cc(-c3cnnc4c3ncn4C3CCC3)ccc2F)cc1 [Example 28, 7-Cyclobutyl-4-[4′-(ethylsulfonyl)-6-fluorobiphenyl-3-yl]-7H-imidazol[4,5-c]pyridazine]
15 | 14 | CCS(=O)(=O)c1ccc(-c2cc(-c3cnnc4c3ncn4C(C)C)ccc2F)c(OC)c1 [Example 40, 4-(4′-(Ethylsulfonyl)-6-fluoro-2′-methoxy-[1,1′-biphenyl]-3-yl)-7-isopropyl-7H-imidazo[4,5-c]pyridazine]
16 | 14.4 | CCS(=O)(=O)c1ccc(-c2cc(-c3cnnc4c3ncn4C(C)C)ccc2F)c(Cl)c1 [Example 39, 4-(2′-Chloro-4′-(ethylsulfonyl)-6-fluoro-[1,1′-biphenyl]-3-yl)-7-isopropyl-7H-imidazo[4,5-c]pyridazine]
17 | 118 | CCS(=O)(=O)c1ccc(-c2cc(-c3cnnc4c3ncn4C3CCCC3)ccc2F)c(OC)c1 [Example 43, 7-Cyclopentyl-4-(4′-(ethylsulfonyl)-6-fluoro-2′-methoxy-[1,1′-biphenyl]-3-yl)-7H-imidazo[4,5-c]pyridazine]
18 | 120 | CCCn1cnc2c(-c3ccc(F)c(-c4ccc(S(=O)(=O)CC)cc4)c3)cnnc21 [Example 30, 4-[4′-(Ethylsulfonyl)-6-fluorobiphenyl-3-yl]-7-propyl-7H-imidazo[4,5-d]pyridazine]

Row | Molecule | Ki [nM]
19 | CC(C)n1cnc2c(-c3ccc(F)c(-c4ccc(S(=O)(=O)C(C)C)cc4F)c3)cnnc21 [Example 36, 4-(2′,6-Difluoro-4′-(isopropylsulfonyl)-[1,1′-biphenyl]-3-yl)-7-isopropyl-7H-imidazo[4,5-c]pyridazine] | 87.4

same assay, conditions: read-out: GABA-α2 Ki; competition with [3H]Ro-15-1788; HEK cell membranes; geometric mean of at least two replicates

Row | Ki [nM] | Molecule
20 | 69.5 | 7-Ethyl-4-[4-fluoro-3-(2-methyl-1,1-dioxido-2,3-di hydro-1,2-benzisothiazol-5-yl)phenyl]-7H-imidazo[4,5-d]pyridazine [Example 50]

molecular target: GABRA1-GABRB3-GABRG2 chloride currents in HEK cells (Homo sapiens (Human), UniProt P14867+P18507); assay: QPatch electrophysiological recording, % enhancement of GABA current (α1 PAM); format: cell-based; settings: approximately EC10 GABA, −60 mV, whole-cell patch clamp
Sequence (P14867 28-456): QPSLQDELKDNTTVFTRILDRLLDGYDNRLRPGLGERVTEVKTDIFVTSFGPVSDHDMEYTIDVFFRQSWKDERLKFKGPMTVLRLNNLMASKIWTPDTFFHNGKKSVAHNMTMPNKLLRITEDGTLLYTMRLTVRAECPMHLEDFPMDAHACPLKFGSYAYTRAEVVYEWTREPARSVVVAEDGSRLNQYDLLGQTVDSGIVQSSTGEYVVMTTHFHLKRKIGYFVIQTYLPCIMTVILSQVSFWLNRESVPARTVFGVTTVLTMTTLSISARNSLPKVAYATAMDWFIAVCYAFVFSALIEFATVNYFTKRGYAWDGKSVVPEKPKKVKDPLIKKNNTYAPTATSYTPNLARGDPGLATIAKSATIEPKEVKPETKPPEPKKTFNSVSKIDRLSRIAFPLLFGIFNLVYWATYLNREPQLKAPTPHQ
Sequence (P28472 26-473 partner): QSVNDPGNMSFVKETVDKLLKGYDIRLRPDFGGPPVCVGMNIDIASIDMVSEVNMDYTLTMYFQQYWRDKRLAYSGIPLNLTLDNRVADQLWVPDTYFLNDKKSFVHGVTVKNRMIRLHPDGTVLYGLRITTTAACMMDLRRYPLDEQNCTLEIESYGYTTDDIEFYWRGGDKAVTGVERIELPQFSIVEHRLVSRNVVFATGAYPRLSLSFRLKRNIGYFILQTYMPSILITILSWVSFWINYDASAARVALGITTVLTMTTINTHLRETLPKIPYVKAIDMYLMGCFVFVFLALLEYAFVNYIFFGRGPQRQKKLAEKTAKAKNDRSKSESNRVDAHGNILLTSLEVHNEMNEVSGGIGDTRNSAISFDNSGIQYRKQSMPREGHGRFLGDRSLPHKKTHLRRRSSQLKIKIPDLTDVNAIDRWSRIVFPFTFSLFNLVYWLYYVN
Sequence (P18507 40-475): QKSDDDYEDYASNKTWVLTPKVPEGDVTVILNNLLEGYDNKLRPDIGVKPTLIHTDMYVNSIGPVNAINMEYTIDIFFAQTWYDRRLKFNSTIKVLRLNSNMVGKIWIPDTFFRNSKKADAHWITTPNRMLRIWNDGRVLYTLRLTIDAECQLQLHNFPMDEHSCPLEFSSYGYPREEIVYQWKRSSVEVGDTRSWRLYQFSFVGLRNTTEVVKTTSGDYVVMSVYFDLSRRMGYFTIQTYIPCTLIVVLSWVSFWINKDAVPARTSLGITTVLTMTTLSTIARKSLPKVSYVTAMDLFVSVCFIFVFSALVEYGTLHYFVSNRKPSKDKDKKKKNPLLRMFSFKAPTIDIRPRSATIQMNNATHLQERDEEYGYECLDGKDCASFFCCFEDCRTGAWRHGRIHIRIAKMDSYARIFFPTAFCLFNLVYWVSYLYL
Experimental: (§1) Cell suspension containing HEK cells expressing GABRA2-GABRB2-GABRG2 was placed on the QPatch instrument in serum-free medium into the instrument's cell stirrer. The instrument washed the cells once using extracellular buffer and then dispensed them into the QPlate HT measurement plate at a concentration of 3-4-e6/ml. […] All recordings were made at room temperature (22-24° C.).
(§2) Current records were acquired at 1 KHz and filtered at 0.3 KHz using the Bessel filter. Series resistance compensation was set to 80% in the QPatch software.
(§3) All compounds were dissolved in dimethyl sulfoxide to make 30 mM or 10 mM stock solutions, which were then diluted to 1000 times the desired final concentration in dimethyl sulfoxide. These were diluted into extracellular solution to attain the final concentrations desired. […] This concentration of dimethyl sulfoxide was present in all samples.
(§4) Currents were recorded at −60 mV, using an approximately EC10 concentration of gamma-aminobutyric acid (GABA). This dose of gamma-aminobutyric acid was applied for 6 seconds and washed off using extracellular buffer as an unrecorded application using the pipetting system of the QPatch instrument. The same dose of gamma-aminobutyric acid was then applied for 9 seconds, then the test compound was co-applied with this dose of gamma-aminobutyric acid for 15 seconds, and washed off using the extracellular solution using the pipetting system of the QPatch instrument.
(§5) Compound effect (% enhancement of gamma-aminobutyric acid current) was calculated using the following formula: [((peak modulator current amplitude-leak)−(GABA current amplitude-leak))/(GABA current amplitude-leak)]*100, where ‘leak’ is leak current at −60 mV, ‘peak modulator current amplitude’ is the current elicited by co-application of gamma-aminobutyric acid and test compound, and ‘GABA current amplitude’ is the current elicited by application of gamma-aminobutyric acid alone.
The ability of the compounds of the formula (I) to modulate the GABA channels expressing the al subunit (or GABRA1) can also be measured using an assay analogous to that described above but replacing the GABRA2-GABRB2-GABRG2 gene construct with the GABRA1-GABRB3-GABRG2 gene construct. All other conditions remain the same including the same cell line and conditions for cell growth.

Row | Molecule | α1 PAM (%)
21 | CCn1cnc2c(-c3ccc(F)c(-c4ccc(S(C)(=O)=O)cc4OC)c3)cnnc21 [Example 12, 7-Ethyl-4-(6-fluoro-2′-methoxy-4′-(methylsulfonyl)-[1,1′-biphenyl]-3-yl)-7H-imidazo[4,5-c]pyridazine] | 3.66
22 | CCn1cnc2c(-c3ccc(F)c(-c4ccc(S(=O)(=O)CC)cc4OC)c3)cnnc21 [Example 4, 7-Ethyl-4-[4′-(ethylsulfonyl)-6-fluoro-2′-methoxybiphenyl-3-yl]-7H-imidazo[4,5-c]pyridazine] | 18.1
23 | CCn1cnc2c(-c3ccc(F)c(-c4ccc(S(=O)(=O)CC)cc4C(F)F)c3)cnnc21 [Example 14, 4-(2′-(Difluoromethyl)-4′-(ethylsulfonyl)-6-fluoro-[1,1′-biphenyl]-3-yl)-7-ethyl-7H-imidazo[4,5-c]pyridazine] | 13.3
24 | CCn1cnc2c(-c3ccc(F)c(-c4ccc(S(N)(=O)=O)cc4)c3)cnnc21 [Example 3, 5′-(7-Ethyl-7H-imidazo[4,5-c]pyridazin-4-yl)-2′-fluorobiphenyl-4-sulfonamide] | −51.1
25 | CCn1cnc2c(-c3ccc(O)c(-c4ccc(S(=O)(=O)CC)cc4OC)c3)cnnc21 [Example 48, 5-(7-Ethyl-7H-imidazo[4,5-c]pyridazin-4-yl)-4′-(ethylsulfonyl)-2′-methoxy-[1,1′-biphenyl]-2-ol] | −5.53

molecular target: GABRA2-GABRB2-GABRG2 chloride currents in HEK cells (Homo sapiens (Human), UniProt P18507+P47869); assay: QPatch electrophysiological recording, % enhancement of GABA current (α2 PAM); format: cell-based; settings: approximately EC10 GABA, −60 mV, whole-cell patch clamp
Sequence (P47869 29-451): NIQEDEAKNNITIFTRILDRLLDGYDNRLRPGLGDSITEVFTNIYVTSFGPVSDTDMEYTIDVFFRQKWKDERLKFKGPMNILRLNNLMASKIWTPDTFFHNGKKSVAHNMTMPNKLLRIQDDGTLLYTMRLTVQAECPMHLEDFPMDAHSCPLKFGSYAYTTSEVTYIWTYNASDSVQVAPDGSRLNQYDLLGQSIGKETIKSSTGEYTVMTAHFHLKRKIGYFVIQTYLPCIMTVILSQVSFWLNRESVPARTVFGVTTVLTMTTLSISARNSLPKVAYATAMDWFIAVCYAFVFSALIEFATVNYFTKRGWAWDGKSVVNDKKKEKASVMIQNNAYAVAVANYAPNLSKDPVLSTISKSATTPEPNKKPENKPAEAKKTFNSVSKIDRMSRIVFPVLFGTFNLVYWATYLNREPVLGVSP
Sequence (P47870 26-512 partner): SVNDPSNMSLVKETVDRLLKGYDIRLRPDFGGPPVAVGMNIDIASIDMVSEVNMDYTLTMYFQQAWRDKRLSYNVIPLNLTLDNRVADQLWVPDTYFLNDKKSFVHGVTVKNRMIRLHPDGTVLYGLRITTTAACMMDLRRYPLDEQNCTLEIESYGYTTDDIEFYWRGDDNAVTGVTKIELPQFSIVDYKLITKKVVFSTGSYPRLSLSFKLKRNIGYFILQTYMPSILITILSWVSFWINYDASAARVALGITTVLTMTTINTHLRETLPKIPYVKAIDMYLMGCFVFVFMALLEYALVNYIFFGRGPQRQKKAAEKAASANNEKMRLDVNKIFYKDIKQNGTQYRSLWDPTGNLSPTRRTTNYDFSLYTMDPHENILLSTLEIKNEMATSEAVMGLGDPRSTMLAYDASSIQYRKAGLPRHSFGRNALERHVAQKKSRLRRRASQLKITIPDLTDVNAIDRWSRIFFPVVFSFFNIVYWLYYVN
Sequence (P18507 40-475): as the sequence (P18507 40-475) above
Experimental: Human Embryonic Kidney (HEK) cells were transfected with a GABRA2-GABRB2-GABRG2 construct using standard techniques.
For QPatch electrophysiology testing, cells were harvested from flasks by enzymatic dissociation and resuspended in serum-free medium. Cells were typically used for electrophysiological experiments within 24 to 72 hours after splitting.
as §1, §2, §3, §4, §5

Row | Molecule | α2 PAM (%)
26 | CCn1cnc2c(-c3ccc(F)c(-c4ccc(S(C)(=O)=O)cc4OC)c3)cnnc21 [Example 12, 7-Ethyl-4-(6-fluoro-2′-methoxy-4′-(methylsulfonyl)-[1,1′-biphenyl]-3-yl)-7H-imidazo[4,5-c]pyridazine] | 39.1
27 | NS(=O)(=O)c1ccc(-c2cc(-c3cnnc4c3ncn4C3CC3)ccc2F)cc1 [Example 20, 5′-(7-Cyclopropyl-7H-imidazo[4,5-c]pyridazin-4-yl)-2′-fluoro-[1,1′-biphenyl]-4-sulfonamide] | 36.3
28 | CCn1cnc2c(-c3ccc(Cl)c(-c4ccc(S(=O)(=O)CC)cc4OC)c3)cnnc21 [Example 45, 4-(6-Chloro-4′-(ethylsulfonyl)-2′-methoxy-[1,1′-biphenyl]-3-yl)-7-ethyl-7H-imidazo[4,5-c]pyridazine] | 61.1
29 | CCn1cnc2c(-c3ccc(F)c(-c4ccc(S(=O)(=O)CC)cc4C(F)F)c3)cnnc21 [Example 14, 4-(2′-(Difluoromethyl)-4′-(ethylsulfonyl)-6-fluoro-[1,1′-biphenyl]-3-yl)-7-ethyl-7H-imidazo[4,5-c]pyridazine] | 58.0
30 | CCn1cnc2c(-c3ccc(F)c(-c4ccc(S(C)(=O)=O)cc4)c3)cnnc21 [Example 9, 7-Ethyl-4-[6-fluoro-4′-(methylsulfonyl)biphenyl-3-yl]-7H-imidazo[4,5-c]pyridazine] | 38.9
31 | CCn1cnc2c(-c3ccc(F)c(-c4ccc(S(N)(=O)=O)cc4)c3)cnnc21 [Example 3, 5′-(7-Ethyl-7H-imidazo[4,5-c]pyridazin-4-yl)-2′-fluorobiphenyl-4-sulfonamide] | 27.6
32 | CCn1cnc2c(-c3ccc(F)c(-c4ccc(S(=O)(=O)CC)cc4)c3)cnnc21 [Example 49, 7-Ethyl-4-[4′-(ethylsulfonyl)-6-fluorobiphenyl-3-yl]-7H-imidazo[4,5-d]pyridazine] | 83.9
33 | CCn1cnc2c(-c3ccc(O)c(-c4ccc(S(=O)(=O)CC)cc4OC)c3)cnnc21 [Example 48, 5-(7-Ethyl-7H-imidazo[4,5-c]pyridazin-4-yl)-4′-(ethylsulfonyl)-2′-methoxy-[1,1′-biphenyl]-2-ol] | 47.8
34 | CCn1cnc2c(-c3ccc(F)c(-c4ccc(S(=O)(=O)CC)cc4F)c3)cnnc21 [Example 15, 4-(4′-Ethanesulfonyl-6,2′-difluoro-biphenyl-3-yl)-7-ethyl-7H-imidazo[4,5-c]pyridazine] | 39.4
35 | CCn1cnc2c(-c3ccc(C#N)c(-c4ccc(S(=O)(=O)CC)cc4OC)c3)cnnc21 [Example 47, 5-(7-Ethyl-7H-imidazo[4,5-c]pyridazin-4-yl)-4′-(ethylsulfonyl)-2′-methoxy-[1,1′-biphenyl]-2-carbonitrile] | 68.7
